BigSolDB 2.1

In the case of `CC(=O)Nc1ccc(OC(=O)c2ccccc2OC(C)=O)cc1`, the solubility (mole fraction) (in DMAc, 278.15 K) is reported as 0.058, the solubility (mole fraction) (in DMAc, 283.15 K) is reported as 0.0623 and the solubility (mole fraction) (in DMAc, 288.15 K) is reported as 0.0687. The solubility (mole fraction) (in DMAc, 293.15 K) was 0.075, the solubility (mole fraction) (in DMAc, 298.15 K) was 0.0814 and the solubility (mole fraction) (in DMAc, 303.15 K) was 0.0875. The solubility (mole fraction) (in DMAc, 308.15 K) was 0.0954, the solubility (mole fraction) (in DMAc, 313.15 K) was 0.103 and the solubility (mole fraction) (in DMAc, 318.15 K) was 0.112. For the same compound, the solubility (mole fraction) (in DMAc, 323.15 K) was 0.12, the solubility (mole fraction) (in DMSO, 293.15 K) was 0.0385 and the solubility (mole fraction) (in DMSO, 298.15 K) was 0.0463. It also gave a solubility (mole fraction) (in DMSO, 303.15 K) of 0.0544, a solubility (mole fraction) (in DMSO, 308.15 K) of 0.0637 and a solubility (mole fraction) (in DMSO, 313.15 K) of 0.0743. The solubility (mole fraction) (in DMSO, 318.15 K) was 0.0865, the solubility (mole fraction) (in DMSO, 323.15 K) was 0.1 and the solubility (mole fraction) (in methyl acetate, 278.15 K) was 0.0011. It also gave a solubility (mole fraction) (in methyl acetate, 283.15 K) of 0.00138, a solubility (mole fraction) (in methyl acetate, 288.15 K) of 0.00164 and a solubility (mole fraction) (in methyl acetate, 293.15 K) of 0.00199. It also gave a solubility (mole fraction) (in methyl acetate, 298.15 K) of 0.00238, a solubility (mole fraction) (in methyl acetate, 303.15 K) of 0.00289 and a solubility (mole fraction) (in methyl acetate, 308.15 K) of 0.00344. It also gave a solubility (mole fraction) (in methyl acetate, 313.15 K) of 0.00412, a solubility (mole fraction) (in methyl acetate, 318.15 K) of 0.00496 and a solubility (mole fraction) (in methyl acetate, 323.15 K) of 0.00602. For the same compound, the solubility (mole fraction) (in n-butyl acetate, 278.15 K) was 0.000482, the solubility (mole fraction) (in n-butyl acetate, 283.15 K) was 0.000609 and the solubility (mole fraction) (in n-butyl acetate, 288.15 K) was 0.000727. The solubility (mole fraction) (in n-butyl acetate, 293.15 K) was 0.000899, the solubility (mole fraction) (in n-butyl acetate, 298.15 K) was 0.00106 and the solubility (mole fraction) (in n-butyl acetate, 303.15 K) was 0.0013. The solubility (mole fraction) (in n-butyl acetate, 308.15 K) was 0.0016, the solubility (mole fraction) (in n-butyl acetate, 313.15 K) was 0.00189 and the solubility (mole fraction) (in n-butyl acetate, 318.15 K) was 0.00229. The solubility (mole fraction) (in n-butyl acetate, 323.15 K) was 0.00272, the solubility (mole fraction) (in n-pentyl acetate, 278.15 K) was 0.000309 and the solubility (mole fraction) (in n-pentyl acetate, 283.15 K) was 0.000392. The solubility (mole fraction) (in n-pentyl acetate, 288.15 K) was 0.000509, the solubility (mole fraction) (in n-pentyl acetate, 293.15 K) was 0.000638 and the solubility (mole fraction) (in n-pentyl acetate, 298.15 K) was 0.000794. It also gave a solubility (mole fraction) (in n-pentyl acetate, 303.15 K) of 0.000983, a solubility (mole fraction) (in n-pentyl acetate, 308.15 K) of 0.00121 and a solubility (mole fraction) (in n-pentyl acetate, 313.15 K) of 0.00149. For the same compound, the solubility (mole fraction) (in n-pentyl acetate, 318.15 K) was 0.0018, the solubility (mole fraction) (in n-pentyl acetate, 323.15 K) was 0.00217 and the solubility (mole fraction) (in n-propyl acetate, 278.15 K) was 0.00053. The solubility (mole fraction) (in n-propyl acetate, 283.15 K) was 0.000653, the solubility (mole fraction) (in n-propyl acetate, 288.15 K) was 0.000831 and the solubility (mole fraction) (in n-propyl acetate, 293.15 K) was 0.00104. It also gave a solubility (mole fraction) (in n-propyl acetate, 298.15 K) of 0.00127, a solubility (mole fraction) (in n-propyl acetate, 303.15 K) of 0.00154 and a solubility (mole fraction) (in n-propyl acetate, 308.15 K) of 0.00186. For the same compound, the solubility (mole fraction) (in n-propyl acetate, 313.15 K) was 0.00221, the solubility (mole fraction) (in n-propyl acetate, 318.15 K) was 0.00275 and the solubility (mole fraction) (in n-propyl acetate, 323.15 K) was 0.00324.
